Test results reported in paper PMC12751015, “Evaluation of Bifunctional, PSMA-Targeted Triazamacrocycle-Picolinates Compatible with the ^18F/^44Sc/^177Lu Isotope Triad” (Journal of Medicinal Chemistry, 2025).

Columns and labels:
[1] = pH-dependent speciation of ScF complexes by 1H and 45Sc NMR (HypNMR2008 fit); assay type: physicochemical; conditions: Sc3+ complexes, determined by HypNMR2008
From the text: To establish optimal parameters for the formation of ScF ternary complexes, we determined the pH-dependent speciation of ScF complexes with H 3 mpatcn and H 2 mpatcn-am-Bz using ^1H and ^45Sc NMR spectroscopy in accordance with previous methods established for the formation of lanthanide-fluoride complexes (Supporting Information, Section S3). […] Above pH 10, the [Sc(L)-OH] species becomes most favorable, effectively outcompeting the F^– ligand at increasing concentration. Low pH conditions led to the presence of protonated species [Sc(mpatcn)-H]^+, which competes with inner sphere fluorination. […] For both ligands, no statistically significant differences for pH dependence were observed, with the % of [ScF(L)] species remaining constant between pH 3 and 8 (Table ).

PSMA + tumor = conditions: 2 h p.i., clinically employed agents; ref not printed (Table S11); cited from earlier work

O=C(O)CN1CCN(CC(=O)O)CCN(Cc2cccc(C(=O)O)n2)CC1 [mpatcn]
logßML [1]: 23 | logßMLF [1]: 27.7 | logßMLH [1]: 24.9 | logßMLOH [1]: 14.2

CN(Cc1ccccc1)C(=O)CN1CCN(CC(=O)O)CCN(Cc2cccc(C(=O)O)n2)CC1 [mpatcn-am-Bz]
logßML [1]: 23.2 | logßMLF [1]: 27.8 | logßMLOH [1]: 13.7

O=C(O)CC[C@H](NC(=O)N[C@@H](CCCCNC(=O)c1ccc(F)nc1)C(=O)O)C(=O)O [Pylarify]
tumor to blood ratio (PSMA + tumor): 1220 ± 431
